According to patent US20110077272A1, “PULMONARY FORMULATIONS OF TRIPTANS” (Vectura Limited, priority 2008, published 2011):

Experiments:
[1] = Solubility in ethanol-based HFA 134a pMDI formulations; assay type: physicochemical
[2] = Preclinical pulmonary administration of sumatriptan, irritancy to the airways; assay type: in vivo
[3] = intranasal route (Duquesnoy et al 1998); cited from earlier work

| solubility [1] | Compound | respiratory changes ([2]; 1.9 mg/kg) | respiratory changes ([2]; 9 mg/kg) | coefficient of variation for Tmax [3] [%] |
| --- | --- | --- | --- | --- |
| low solubility | CNS(=O)(=O)Cc1ccc2[nH]cc(CCN(C)C)c2c1 [sumatriptan succinate] |  |  |  |
|  | CNS(=O)(=O)Cc1ccc2[nH]cc(CCN(C)C)c2c1 [sumatriptan] | not of degenerative nature | degeneration occurred | 62.8 |
